pIC50: −log10 of the molar value.
Tests used:
A431 = assay: Dose-dependent change in panel protein levels by western blot; type: cell-based, human; settings: for BAG4 protein level change / CAD17 protein level change / CBFB protein level change / Claudin 1 protein level change / ELAVL-1 protein level change / EpCAM protein level change / HSPG2 protein level change / PDCD4 protein level change / PRDX6 protein level change / QARS protein level change / S100A9 protein level change / SERPINE1 protein level change / SNX5 protein level change / TESTICAN2 protein level change / TNFAIP2 protein level change / TROP-2 protein level change: dose-dependent, 16 h, western blot; for changes in levels of the 16 validated proteins (immunoblots): erlotinib 100-1,000 nM, paclitaxel 10-100 nM; as to BAG4 protein level change: key: (+) for increase; (−) for decrease; N.C.: (N.C) for no change; (~) for not detected; as to CAD17 protein level change: key: (+) for increase; (−) for decrease; N.C.: (N.C) for no change; (~) for not detected; as to CBFB protein level change: key: (+) for increase; (−) for decrease; N.C.: (N.C) for no change; (~) for not detected; as to Claudin 1 protein level change: key: (+) for increase; (−) for decrease; N.C.: (N.C) for no change; (~) for not detected
Protocol: Lysates were sonicated for 10 minutes, heated at 95° C. for 10 minutes, and centrifuged for 15 minutes at 20,000×g. The supernatant was cleared through a 0.22-micron filter and protein concentration was determined (BCA, BioRad, Hercules, Calif.). Lysates were subject to SDS-PAGE and subsequent immunoblot. For in vivo experiments, mouse tumor pieces from 5 mice were pooled and suspended in RAF buffer and homogenized with a high-speed blender. The homogenate was centrifuged for 5 min at 200×g. The supernatant was sonicated on ice for 2 minutes and centrifuged for 1 hr at 12,000×g. The supernatant (soluble fraction) was cleared through a 0.22-micron filter and processed as above. The pellet (insoluble fraction) was resuspended in RAF buffer with 2% SDS and DTT, heated at 95° C. and sonicated prior to processing.

NSCLC cells = assay: Biomarker profiles / PRDX6 shedding of treated NSCLC (Example 3); type: cell-based
NSCLC patients = assay: PRDX6 levels in circulation of NSCLC patients before and after Tarceva; type: in vivo, human
Source text: To validate if this temporal profile is replicated in a clinical setting, the plasma and/or sera from human NSCLC patients was studied before and after Tarceva® (erlotinib) treatment. […] Serum samples from MRN #48 (FIG. 10A) were taken before and after treatment with Tarceva®. […] Plasma samples were obtained before treatment, and at 2 weeks and 4 weeks post initiation of treatment.

A431 cells = settings: previously shown; read-out: IC50 of paclitaxel in A431 cells; cited from earlier work
[1] = patient MRN 9, Pre-Tarceva 1.07 +/− 0.03
[2] = patient MRN 48, Pre-Tarceva 0.27 +/− 0.01
[3] = patient MRN 91, Pre-Tarceva 0.65 +/− 0.09

SMILES | BAG4 protein level change (A431) | CAD17 protein level change (A431) | CBFB protein level change (A431) | Claudin 1 protein level change (A431) | ELAVL-1 protein level change (A431) | EpCAM protein level change (A431) | HSPG2 protein level change (A431) | PDCD4 protein level change (A431) | PRDX6 protein level change (A431) | QARS protein level change (A431) | S100A9 protein level change (A431) | SERPINE1 protein level change (A431) | SNX5 protein level change (A431) | TESTICAN2 protein level change (A431) | TNFAIP2 protein level change (A431) | TROP-2 protein level change (A431) | changes in levels of the 16 validated proteins (immunoblots) (A431) | also measured
O=c1[nH]c2ccccc2n1C1CCN(Cc2ccc(-c3nc4cc5[nH]cnc5cc4nc3-c3ccccc3)cc2)CC1 [A6730] | + | N.C. | + | + | N.C. | N.C. | N.C. | N.C. | N.C. | + | N.C. | N.C. | N.C. | N.C. | + | N.C. |  | 
COc1cccc(-c2cc(=O)c3ccccc3o2)c1N [PD98059] | N.C. | + | N.C. | + | N.C. | N.C. | N.C. | + | + | N.C. | + | + | N.C. | + | N.C. | N.C. |  | Claudin-1 expression (A431; AKT or MAPK pathway inhibition): changes in expression; panel proteins that showed a change in abundance (A431; AKT or MAPK pathway inhibition): CAD17, PDCD4, S100A9, SERPINE1, and Testican-2; panel proteins unchanged by treatment (A431; AKT or MAPK pathway inhibition): ELAVL-1, EpCAM, HSPG2, TROP2, and SNX5
C#Cc1cccc(Nc2ncnc3cc(OCCOC)c(OCCOC)cc23)c1 [erlotinib] | + | + | + | + | + | + | + | + | + | + | + | + | − | + | + | + | mirrored the effect of gefitinib | biomarker profiles by treated NSCLC cells (NSCLC cells; compared with Iressa treated cells, data not shown): the same as Iressa; circulating PRDX6 profile in patients with positive response (NSCLC patients; at least three patients, pilot data): initial rise in circulating PRDX6 (2-4 weeks post-therapy) followed by a decline in PRDX6 levels by 8 weeks post-therapy; PRDX6 level in circulation, Post-Tarceva (2 wks.) (NSCLC patients; [1]): 1.63 +/− 0.05 ng PRDX6/Total Protein in circulation; PRDX6 level in circulation, Post-Tarceva (3.5 to 4 wks.) (NSCLC patients; [1]): 0.33 +/− 0.11 ng PRDX6/Total Protein in circulation; PRDX6 level in circulation, Post-Tarceva (6.5-8 wks.) (NSCLC patients; [1]): 0.45 +/− 0.05 ng PRDX6/Total Protein in circulation; PRDX6 level in circulation, Post-Tarceva (2 wks.) (NSCLC patients; [2]): 0.76 +/− 0.08 ng PRDX6/Total Protein in circulation; PRDX6 level in circulation, Post-Tarceva (3.5 to 4 wks.) (NSCLC patients; [2]): 0.42 +/− 0.02 ng PRDX6/Total Protein in circulation; PRDX6 level in circulation, Post-Tarceva (3.5 to 4 wks.) (NSCLC patients; [3]): 5.0 +/− 0.3 ng PRDX6/Total Protein in circulation; PRDX6 level in circulation, Post-Tarceva (6.5-8 wks.) (NSCLC patients; [3]): 0.46 +/− 0.18 ng PRDX6/Total Protein in circulation
CC(=O)O[C@H]1C(=O)[C@@]2(C)[C@H]([C@H](OC(=O)c3ccccc3)[C@]3(O)C[C@H](OC(=O)[C@H](O)[C@@H](NC(=O)c4ccccc4)c4ccccc4)C(C)=C1C3(C)C)[C@]1(OC(C)=O)CO[C@@H]1C[C@@H]2O [paclitaxel] | N.C. | N.C. | N.C. | N.C. | N.C. | N.C. | N.C. | N.C. | N.C. | N.C. | N.C. | N.C. | N.C. | N.C. | N.C. | N.C. | none of the proteins tested demonstrated a change in abundance | shedding of PRDX6 (NSCLC cells; effective paclitaxel treatment on NSCLC): failed to elicit a similar shedding of PRDX6; pIC50 (A431 cells): ~8.00

Reference: patent US9588122B2, “Methods of treating cancer sensitive to anti-EGFR therapy and modifying treatment using peroxiredoxin 6 biomarker” (The Board of Trustees of the Leland Stanford Junior …, priority 2013, dated 2017)
